In PubChem BioAssay AID248 (DTP/NCI, 2004):
Values joined by “and” are separate entries in the source; they are usually repeats but may differ in a detail not shown here. Identical values can stand only once. Toxic doses and inconclusive results are not listed. Cut-off read from the data, not from the text of the source: active = T/C of 150% or more; inactive = T/C below 125%.

Test system: L1210 leukemia ip in BDF1 mice, survival T/C
Experiment: NCI In Vivo Anticancer Drug Screen. Data for tumor model L1210 Leukemia (intraperitoneal) in B6D2F1 (BDF1) mice
Details: endpoint: mean survival time, higher = longer survival
Method in brief: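 Each compound was tested against a transplantable tumor grown in mice. The endpoint was survival, with treated animals benchmarked against vehicle controls as a simple ratio.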

[1] = dose: 12.5 mg/kg/injection, schedule: Q01DX009 (ip), vehicle: saline
[2] = dose: 25.0 mg/kg/injection, schedule: Q01DX009 (ip), vehicle: saline
[3] = dose: 50.0 mg/kg/injection, schedule: Q01DX009 (ip), vehicle: saline
[4] = dose: 100.0 mg/kg/injection, schedule: Q01DX009 (ip), vehicle: other
[5] = dose: 200.0 mg/kg/injection, schedule: Q01DX009 (ip), vehicle: other
[6] = dose: 400.0 mg/kg/injection, schedule: Q01DX009 (ip), vehicle: other
[7] = dose: 100.0 mg/kg/injection, schedule: Q04DX003 (ip), vehicle: other

Measured: T/C

Nc1nc(N)c(-c2ccc(Cl)cc2)c(CO)n1
inactive: dose: 100.0 mg/kg/injection, schedule: Q01DX001 (ip), vehicle: saline 93 % of control | dose: 200.0 mg/kg/injection, schedule: Q01DX001 (ip), vehicle: saline 104 % of control | dose: 400.0 mg/kg/injection, schedule: Q01DX001 (ip), vehicle: saline 95 % of control

COC(=O)c1ccccc1-n1cnc2ccccc2c1=O
inactive: dose: 100.0 mg/kg/injection, schedule: Q04DX002 (ip), vehicle: Klucel (hydroxypropylcellulose) (HPC) 101 % of control | dose: 200.0 mg/kg/injection, schedule: Q04DX002 (ip), vehicle: Klucel (hydroxypropylcellulose) (HPC) 101 % of control | dose: 400.0 mg/kg/injection, schedule: Q04DX002 (ip), vehicle: Klucel (hydroxypropylcellulose) (HPC) 93 % of control

COc1cc([N+](=O)[O-])ccc1NC(=O)Nc1ccc(S(N)(=O)=O)cc1
inactive: dose: 100.0 mg/kg/injection, schedule: Q01DX001 (ip), vehicle: saline with Tween-80 98 % of control | dose: 100.0 mg/kg/injection, schedule: Q01DX009 (ip), vehicle: saline with Tween-80 103 % of control and 107 % of control | dose: 100.0 mg/kg/injection, schedule: Q04DX002 (ip), vehicle: saline with Tween-80 100 % of control and 102 % of control | dose: 200.0 mg/kg/injection, schedule: Q01DX001 (ip), vehicle: saline with Tween-80 90 % of control | dose: 200.0 mg/kg/injection, schedule: Q01DX009 (ip), vehicle: saline with Tween-80 92 % of control and 103 % of control | dose: 200.0 mg/kg/injection, schedule: Q04DX002 (ip), vehicle: saline with Tween-80 99 % of control and 86 % of control | dose: 400.0 mg/kg/injection, schedule: Q01DX001 (ip), vehicle: saline with Tween-80 91 % of control | dose: 400.0 mg/kg/injection, schedule: Q01DX009 (ip), vehicle: saline with Tween-80 94 % of control and 96 % of control | dose: 400.0 mg/kg/injection, schedule: Q04DX002 (ip), vehicle: saline with Tween-80 94 % of control

Br[C](Br)(Br)[Hg][c]1ccccc1
inactive: dose: 6.0 mg/kg/injection, schedule: Q01DX009 (ip), vehicle: Klucel (hydroxypropylcellulose) (HPC) 98 % of control | dose: 12.5 mg/kg/injection, schedule: Q01DX009 (ip), vehicle: Klucel (hydroxypropylcellulose) (HPC) 93 % of control | dose: 12.5 mg/kg/injection, schedule: Q04DX003 (ip), vehicle: Klucel (hydroxypropylcellulose) (HPC) 110 % of control | dose: 25.0 mg/kg/injection, schedule: Q01DX009 (ip), vehicle: Klucel (hydroxypropylcellulose) (HPC) 87 % of control | dose: 25.0 mg/kg/injection, schedule: Q04DX003 (ip), vehicle: Klucel (hydroxypropylcellulose) (HPC) 95 % of control

COC(=O)[C@@H]1c2cc3c(c(O)c2[C@@H](OC)C[C@@]1(C)O)C(=O)c1c(O)cc2c(c1C3=O)OC1O[C@@]2(C)[C@H](O)[C@@H](N(C)C)[C@@H]1O
inactive: dose: 3.12 mg/kg/injection, schedule: Q01DX015 (ip), vehicle: carboxymethylcellulose (CMC) 104 % of control | dose: 6.25 mg/kg/injection, schedule: Q01DX009 (ip), vehicle: saline 106 % of control | dose: 6.25 mg/kg/injection, schedule: Q01DX015 (ip), vehicle: carboxymethylcellulose (CMC) 108 % of control | [1] 112 % of control | dose: 12.5 mg/kg/injection, schedule: Q01DX015 (ip), vehicle: carboxymethylcellulose (CMC) 120 % of control | [2] 109 % of control | dose: 50.0 mg/kg/injection, schedule: Q01DX001 (ip), vehicle: carboxymethylcellulose (CMC) 105 % of control | [3] 112 % of control | dose: 50.0 mg/kg/injection, schedule: Q01DX015 (ip), vehicle: carboxymethylcellulose (CMC) 122 % of control | dose: 100.0 mg/kg/injection, schedule: Q01DX001 (ip), vehicle: carboxymethylcellulose (CMC) 117 % of control

CCSC(Sc1ccccc1)C(SCC)C(OC(=O)c1ccccc1)C(OC(=O)c1ccccc1)C(COC(=O)c1ccccc1)OC(=O)c1ccccc1 (centres undefined)
inactive: dose: 75.0 mg/kg/injection, schedule: Q01DX001 (ip), vehicle: other 95 % of control | dose: 150.0 mg/kg/injection, schedule: Q01DX001 (ip), vehicle: other 90 % of control | dose: 300.0 mg/kg/injection, schedule: Q01DX001 (ip), vehicle: other 94 % of control

OCC(I)C(CO)[n+]1ccccc1 (centres undefined)
inactive: [1] 104 % of control | dose: 12.5 mg/kg/injection, schedule: Q04DX003 (ip), vehicle: saline 102 % of control | [2] 110 % of control | dose: 25.0 mg/kg/injection, schedule: Q04DX003 (ip), vehicle: saline 100 % of control | [3] 101 % of control | dose: 50.0 mg/kg/injection, schedule: Q04DX003 (ip), vehicle: saline 102 % of control

O=C(O)c1ccc(S(=O)(=O)Cl)cc1
inactive: dose: 12.5 mg/kg/injection, schedule: Q04DX002 (ip), vehicle: Klucel (hydroxypropylcellulose) (HPC) 97 % of control | dose: 25.0 mg/kg/injection, schedule: Q04DX002 (ip), vehicle: Klucel (hydroxypropylcellulose) (HPC) 90 % of control | dose: 50.0 mg/kg/injection, schedule: Q04DX002 (ip), vehicle: Klucel (hydroxypropylcellulose) (HPC) 107 % of control

O=c1n(CCCl)c(=O)n(CCCl)c(=O)n1CCCl
inactive: dose: 50.0 mg/kg/injection, schedule: Q04DX003 (ip), vehicle: saline with Tween-80 103 % of control | dose: 100.0 mg/kg/injection, schedule: Q04DX003 (ip), vehicle: saline with Tween-80 88 % of control | dose: 200.0 mg/kg/injection, schedule: Q04DX003 (ip), vehicle: saline with Tween-80 96 % of control and 87 % of control | dose: 400.0 mg/kg/injection, schedule: Q04DX003 (ip), vehicle: saline with Tween-80 98 % of control

O=C(COc1cc(Cl)c(Cl)cc1Cl)OCCN(CCOC(=O)COc1cc(Cl)c(Cl)cc1Cl)C(=O)COc1ccc(Cl)cc1
inactive: [4] 92 % of control | [5] 92 % of control | [6] 102 % of control

CCOc1ccccc1NC(=S)NC(=O)c1ccc(OC)cc1
inactive: dose: 100.0 mg/kg/injection, schedule: Q01DX009 (ip), vehicle: Klucel (hydroxypropylcellulose) (HPC) 104 % of control | dose: 100.0 mg/kg/injection, schedule: Q04DX003 (ip), vehicle: Klucel (hydroxypropylcellulose) (HPC) 109 % of control | dose: 200.0 mg/kg/injection, schedule: Q01DX009 (ip), vehicle: Klucel (hydroxypropylcellulose) (HPC) 93 % of control | dose: 200.0 mg/kg/injection, schedule: Q04DX003 (ip), vehicle: Klucel (hydroxypropylcellulose) (HPC) 102 % of control | dose: 400.0 mg/kg/injection, schedule: Q01DX009 (ip), vehicle: Klucel (hydroxypropylcellulose) (HPC) 93 % of control | dose: 400.0 mg/kg/injection, schedule: Q04DX003 (ip), vehicle: Klucel (hydroxypropylcellulose) (HPC) 100 % of control

CCOc1ccc(NC(=O)CC(C)=O)cc1
inactive: dose: 25.0 mg/kg/injection, schedule: Q04DX003 (ip), vehicle: other 95 % of control | dose: 50.0 mg/kg/injection, schedule: Q04DX003 (ip), vehicle: other 100 % of control | [7] 96 % of control

Cn1cnc(N)c1S(=O)(=O)Nc1cccc2ccccc12
inactive: [7] 100 % of control | dose: 200.0 mg/kg/injection, schedule: Q04DX003 (ip), vehicle: other 102 % of control | dose: 400.0 mg/kg/injection, schedule: Q04DX003 (ip), vehicle: other 101 % of control

CCCCCCCCCCCCSC(=O)NCCC
inactive: [4] 95 % of control | [5] 90 % of control | [6] 92 % of control
